In patent publication US20150105252A1, “SUBSTITUTED PYRAZOLES AS HERBICIDES” (E I DU PONT DE NEMOURS AND COMPANY, priority 2013, published 2015):

Legend:
Experiment in all cases: Test C postemergence
galium = type: in vivo, Galium aparine
Procedure, shortened: (§1)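 Visual control ratings on a 0–100 scale (100 = complete control) made against untreated controls after 13 to 15 days in greenhouse. Compounds applied in surfactant-containing solvent mixture, either preemergence to loam/sand-sown seeds or postemergence to 1- to 4-leaf plants (2–18 cm) in peat medium.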

velvetleaf = type: in vivo, Abutilon theophrasti
Procedure, shortened: as §1

kochia = type: in vivo, Kochia scoparia
Procedure, shortened: as §1

corn = type: in vivo, Zea mays
From the text: (§2) Seeds of plant species selected from blackgrass (Alopecurus myosuroides), ryegrass, Italian (Italian ryegrass, Lolium multiflorum), wheat (winter wheat, Triticum aestivum), galium (catchweed bedstraw, Galium aparine), corn (Zea mays), crabgrass, large (large crabgrass, Digitaria sanguinalis), foxtail, giant (giant foxtail, Setaria faberii), johnsongrass (Sorghum halepense), lambsquarters (Chenopodium album), morningglory (Ipomoea coccinea), nutsedge, yellow (yellow nutsedge, Cyperus esculentus), pigweed (redroot pigweed, Amaranthus retroflexus), ragweed (common ragweed, Ambrosia elation), soybean (Glycine max), barnyardgrass (Echinochloa crus-galli), oilseed rape (Brassica napus), waterhemp (common waterhemp, Amaranthus rudis), oat, wild (wild oat, Avena fatua), kochia (Kochia scoparia), Surinam grass (Brachiaria decumbens), foxtail, green (green foxtail, Setaria viridis), goosegrass (Eleusine indica), bromegrass, downy (downy bromegrass, Bromus tectorum), nightshade (eastern black nightshade, Solanum ptycanthum), cocklebur (common cocklebur, Xanthium strumarium), cupgrass, woolly (woolly cupgrass, Eriochloa villosa), bermudagrass (Cynodon dactylon), sunflower, (common oilseed sunflower, Helianthus annuus), Russian thistle (Salsola kali), and velvetleaf (Abutilon theophrasti) were planted into a blend of loam soil and sand and treated preemergence with test chemicals formulated in a non-phytotoxic solvent mixture which included a surfactant.
(§3) At the same time, plants selected from these crop and weed species and also chickweed (common chickweed, Stellaria media), canarygrass (littleseed canarygrass, Phalaris minor), and deadnettle (henbit deadnettle, Lamium amplexicaule), were planted in pots containing Redi-Earth® planting medium (Scotts Company, 14111 Scottslawn Road, Marysville, Ohio 43041) comprising spaghnum peat moss, vermiculite, wetting agent and starter nutrients and treated with postemergence applications of test chemicals formulated in the same manner. Plants ranged in height from 2 to 18 cm (1- to 4-leaf stage) for postemergence treatments. Treated plants and controls were maintained in a greenhouse for 13 to 15 days, after which time all species were compared to controls and visually evaluated. Plant response ratings, summarized in Table C, are based on a scale of 0 to 100 where 0 is no effect and 100 is complete control. A dash (-) response means no test result.

ryegrass, Italian = type: in vivo, Lolium multiflorum
Procedure, shortened: as §1

waterhemp = type: in vivo, Amaranthus rudis
From the text: as §2, §3

blackgrass = type: in vivo, Alopecurus myosuroides
Procedure, shortened: as §1

johnsongrass = type: in vivo, Sorghum halepense
From the text: as §2, §3

crabgrass, large = type: in vivo, Digitaria sanguinalis
Procedure, shortened: as §1

foxtail, giant = type: in vivo, Setaria faberii
From the text: as §2, §3

ragweed = type: in vivo, Ambrosia elation
From the text: as §2, §3

soybean = type: in vivo, Glycine max
Procedure, shortened: as §1

morningglory = type: in vivo, Ipomoea coccinea
Procedure, shortened: as §1

chickweed = type: in vivo, Stellaria media
Procedure, shortened: as §1

nutsedge, yellow = type: in vivo, Cyperus esculentus
From the text: as §2, §3

oat, wild = type: in vivo, Avena fatua
Procedure, shortened: as §1

pigweed = type: in vivo, Amaranthus retroflexus
From the text: as §2, §3

oilseed rape = type: in vivo, Brassica napus
Procedure, shortened: as §1

[1] = Postemergence, 31 g ai/ha, visually evaluated after 13 to 15 days
[2] = postemergence, 62 g ai/ha, scale 0 to 100
[3] = postemergence, 250 g ai/ha, scale 0 to 100 (0 no effect, 100 complete control)
[4] = postemergence, 125 g ai/ha, scale 0 to 100, 0 no effect, 100 complete control

CCc1cc(C(=O)NC2CC2)nn1Cc1ccnc(OC(F)F)c1 [Compound 98]
Plant response rating (scale of 0 to 100 where 0 is no effect and 100 is complete control), Galium (galium; [1]): 50 | Galium plant response rating (galium; [2]): 55 | Plant response rating, Galium (galium; [3]): 90 | Plant response rating, Galium (galium; [4]): 65 | Plant response rating (scale of 0 to 100 where 0 is no effect and 100 is complete control), Velvetleaf (velvetleaf; [1]): 15 | Velvetleaf plant response rating (velvetleaf; [2]): 20 | Plant response rating, Velvetleaf (velvetleaf; [3]): 50 | Plant response rating, Velvetleaf (velvetleaf; [4]): 20 | Plant response rating (scale of 0 to 100 where 0 is no effect and 100 is complete control), Kochia (kochia; [1]): 40 | Kochia plant response rating (kochia; [2]): 75 | Plant response rating, Kochia (kochia; [3]): 85 | Plant response rating, Kochia (kochia; [4]): 85 | Plant response rating (scale of 0 to 100 where 0 is no effect and 100 is complete control), Corn (corn; [1]): 5 | Corn plant response rating (corn; [2]): 5 | Plant response rating, Corn (corn; [3]): 10 | Plant response rating, Corn (corn; [4]): 5 | Plant response rating (scale of 0 to 100 where 0 is no effect and 100 is complete control), Ryegrass, Italian (ryegrass, Italian; [1]): 5 | Ryegrass, Italian plant response rating (ryegrass, Italian; [2]): 10 | Plant response rating, Ryegrass, Italian (ryegrass, Italian; [3]): 10 | Plant response rating, Ryegrass, Italian (ryegrass, Italian; [4]): 10 | Plant response rating (scale of 0 to 100 where 0 is no effect and 100 is complete control), Waterhemp (waterhemp; [1]): 10 | Waterhemp plant response rating (waterhemp; [2]): 45 | Plant response rating, Waterhemp (waterhemp; [3]): 90 | Plant response rating, Waterhemp (waterhemp; [4]): 85 | Plant response rating (scale of 0 to 100 where 0 is no effect and 100 is complete control), Blackgrass (blackgrass; [1]): 5 | Blackgrass plant response rating (blackgrass; [2]): 5 | Plant response rating, Blackgrass (blackgrass; [3]): 40 | Plant response rating, Blackgrass (blackgrass; [4]): 25 | Plant response rating (scale of 0 to 100 where 0 is no effect and 100 is complete control), Johnsongrass (johnsongrass; [1]): 0 | Johnsongrass plant response rating (johnsongrass; [2]): 5 | Plant response rating, Johnsongrass (johnsongrass; [3]): 20 | Plant response rating, Johnsongrass (johnsongrass; [4]): 5 | Plant response rating (scale of 0 to 100 where 0 is no effect and 100 is complete control), Crabgrass, Large (crabgrass, large; [1]): 10 | Crabgrass, Large plant response rating (crabgrass, large; [2]): 15 | Plant response rating, Crabgrass, Large (crabgrass, large; [3]): 50 | Plant response rating, Crabgrass, Large (crabgrass, large; [4]): 45 | Plant response rating (scale of 0 to 100 where 0 is no effect and 100 is complete control), Foxtail, Giant (foxtail, giant; [1]): 45 | Foxtail, Giant plant response rating (foxtail, giant; [2]): 50 | Plant response rating, Foxtail, Giant (foxtail, giant; [3]): 85 | Plant response rating, Foxtail, Giant (foxtail, giant; [4]): 55 | Plant response rating (scale of 0 to 100 where 0 is no effect and 100 is complete control), Ragweed (ragweed; [1]): 15 | Ragweed plant response rating (ragweed; [2]): 35 | Plant response rating, Ragweed (ragweed; [3]): 75 | Plant response rating, Ragweed (ragweed; [4]): 75 | Plant response rating (scale of 0 to 100 where 0 is no effect and 100 is complete control), Soybean (soybean; [1]): 70 | Soybean plant response rating (soybean; [2]): 70 | Plant response rating, Soybean (soybean; [3]): 85 | Plant response rating, Soybean (soybean; [4]): 85 | Plant response rating (scale of 0 to 100 where 0 is no effect and 100 is complete control), Morningglory (morningglory; [1]): 45 | Morningglory plant response rating (morningglory; [2]): 50 | Plant response rating, Morningglory (morningglory; [3]): 90 | Plant response rating, Morningglory (morningglory; [4]): 70 | Plant response rating (scale of 0 to 100 where 0 is no effect and 100 is complete control), Chickweed (chickweed; [1]): 100 | Chickweed plant response rating (chickweed; [2]): 100 | Plant response rating, Chickweed (chickweed; [3]): 100 | Plant response rating, Chickweed (chickweed; [4]): 100 | Plant response rating (scale of 0 to 100 where 0 is no effect and 100 is complete control), Nutsedge, Yellow (nutsedge, yellow; [1]): 0 | Nutsedge, Yellow plant response rating (nutsedge, yellow; [2]): 5 | Plant response rating, Nutsedge, Yellow (nutsedge, yellow; [3]): 5 | Plant response rating, Nutsedge, Yellow (nutsedge, yellow; [4]): 5 | Plant response rating (scale of 0 to 100 where 0 is no effect and 100 is complete control), Oat, Wild (oat, wild; [1]): 5 | Oat, Wild plant response rating (oat, wild; [2]): 5 | Plant response rating, Oat, Wild (oat, wild; [3]): 25 | Plant response rating, Oat, Wild (oat, wild; [4]): 10 | Plant response rating (scale of 0 to 100 where 0 is no effect and 100 is complete control), Pigweed (pigweed; [1]): 10 | Pigweed plant response rating (pigweed; [2]): 10 | Plant response rating, Pigweed (pigweed; [3]): 90 | Plant response rating, Pigweed (pigweed; [4]): 30 | Plant response rating (scale of 0 to 100 where 0 is no effect and 100 is complete control), Oilseed Rape (oilseed rape; [1]): 20 | Oilseed Rape plant response rating (oilseed rape; [2]): 25 | Plant response rating, Oilseed Rape (oilseed rape; [3]): 30 | Plant response rating, Oilseed Rape (oilseed rape; [4]): 30
